Data: patent US10117873B2, “6-amino-purin-8-one compounds” (GlaxoSmithKline LLC, priority 2008, dated 2018)

How the values were obtained:
Assay type in all cases: cell-based
Interferon-α = test: Induction of Interferon-α using cryopreserved human PBMCs; details: PBMC, 24 h incubation, normalized to 1 uM resiquimod, read-out: mean pEC50 for induction of Interferon-α (converted)
Method: Assay for the Induction of Interferon-α Using Cryopreserved Human Peripheral Blood Mononuclear Cells (PBMCs)
Compounds were dissolved in DMSO. Serial 2-fold dilutions with DMSO were prepared and 0.25 μl dispensed into 384-well clear Greiner polypropylene plates.
Blood samples of up to 200 ml were obtained from healthy human donors. Whole blood in 25 ml volumes was overlaid onto 15 ml Ficoll® gradients in Leucosep® tubes, and centrifuged at 1000 g for 20 min. Cells in the band at the plasma/Histopaque® interface were carefully removed and washed twice with PBS (centrifuged at 400 g for 5 min to harvest). The final pellet was resuspended in freezing medium (90% Heat-inactivated serum, 10% DMSO) to a cell concentration of 4×10^7 cells/ml. The resuspended cells were then cryopreserved (frozen) using a rate controlled freezer, and stored at −140° C. for up to 4 months.
Immediately prior to assay, vials of cryopreserved (frozen) PBMCs were thawed rapidly in a water bath at 37° C. A 1:10 dilution of the cells in trypan blue was prepared and counted. The PBMCs were then diluted in growth media [RPMI 1640 containing 10% fetal calf serum (invitrogen), Penicillin+[…] (Gibco cat. #25030-024, 1:50), L-Glutamine 2 mM, and 1000 units/ml recombinant human IFN-gamma (Preprotech catalogue #300-02)] to a density of 1×10^6 cells/ml, and 50 ul/well dispensed to 384-well clear Greiner polypropylene plates containing 0.25 μl DMSO or test compound in 0.25 μl DMSO. […] Plates were incubated for 24 h at 37° C. in 5% CO2.
A multi-isoform immunoassay was used to quantify IFN-α in PBMC supernatants. Rabbit polyclonal antibody against human IFN-α (catalogue number 31101, Stratech Scientific) was diluted 1:10000 in assay buffer (RPMI 1640 containing 10% fetal calf serum, Invitrogen) and 20 μl was added to each well of an MSD® (Meso-Scale® Discovery) single small-spot 384-well GAR (goat anti-rabbit antibody coated) plate.
The plate was incubated for 1 h at room temperature with vigorous shaking. Following three washes with PBS, 20 μl of cell supernatant were added to each well of the plate. The plate was then incubated for 1 h at room temperature with vigorous shaking. A pair of monoclonal antibodies to IFN-α (catalogue numbers 21100 and 21112, Stratech Scientific) were labelled with sulfo-TAG (MSD®), diluted 1:1000 in assay buffer and 20 μl added to each well of the plate. The plate was further incubated for 1 h at room temperature with vigorous shaking. Following three washes with PBS, 30 μl of ×2 T buffer (MSD®) was added to each well and the plate was read on an MSD® Sector 6000 plate reader.
Data were normalized to internal plate controls of 1 uM resiquimod (n=16) and DMSO (n=16). pEC50 values were derived by 4-parameter curve fit with IRLS in ActivityBase, from 11-point, two-fold serial dilution of test compounds.

IFN-α = test: Induction of Interferon-α using fresh human PBMCs; details: PBMC, 24 hr incubation, relative to 2 μM resiquimod control, read-out: mean pEC50 for induction of IFN-α (converted)
Method: (§1) Assay for the Induction of Interferon-α and TNF-α Using Fresh Human Peripheral Blood Mononuclear Cells (PBMCs)
(§2) Compounds were dissolved and serially diluted in DMSO to give 100× the required concentration range using a Biomek® 2000. 1 ul of test compound was transferred into 96-well tissue culture plates using a Biomek® FX. Each compound was assayed in duplicate for each donor. Each plate contained a dilution series of the TLR7/8 agonist resiquimod as standard and Column 11 contained 1 μl of 200 μM resiquimod (giving a 2 μM final concentration, used to define the approximate maximal response to resiquimod).
(§3) Blood samples from two human donors were collected into sodium heparin (10 U/ml). 25 ml volumes of whole blood were overlaid onto 15 mls Histopaque® in LEUCOSEP™ tubes which were centrifuged at 800 g for 20 min and the band at the plasma/histopaque interface carefully removed. The collected cells were centrifuged at 2500 rpm for 10 min and the pellet resuspended in 10 ml of media (RPMI 1640 (Low endotoxin) supplemented with 10% v/v foetal calf serum (FCS, low endotoxin) 100 U/ml penicillin G, 100 μg/ml streptomycin, 10 mM L-glutamine and 1× non-essential amino acids). A 1:20 dilution of the cells was prepared using trypan blue & the cells counted using a haemocytometer. The PBMCs were diluted to give a final concentration of 2×10^6/ml and 100 ul of this cells suspension was added to wells containing 1 μl of diluted test compound.
(§4) The cell preparations were incubated for 24 hr (37° C., 95% air, 5% CO2) after which a sample of the supernatant was removed using the Biomek® FX and assayed for both IFN-α and TNF-α using the MSD® (Mesoscale Discovery) electrochemiluminescence assay platform. The IFN-α assay was carried out similarly to that described above. The TNF-α assay was carried out as per kit instructions (Cat No K111BHB).
(§5) Cytokine released was expressed as a percentage of the 2 μM resiquimod control (column 11). This percentage was plotted against compound concentration and the pEC50 for the response determined by non-linear least squares curve fitting. For the IFN-α responses generally a 4 parameter logistic model was selected. For the TNF responses where a clear maximum response was obtained (i.e. a well defined plateau in the response was observed) then a 4 parameter model was generally used. If the upper asymptote of the curve wasn't well defined then the curve fitting was generally constrained to a maximal response of 100% (i.e. to the response to 2 μM resiquimod) or to the response of the highest concentration tested if this was greater than the resiquimod response. Some curves were bell shaped for one or both cytokines and the cytokine data on the down slope of the bell shaped response (i.e. concentrations above those giving the maximal response) were generally excluded from the fit, usually with the exception of the concentration immediately above the peak response. Curve fitting thus concentrated on the up slope of the dose response curve.

TNF-α = test: Induction of TNF-α using fresh human PBMCs; details: PBMC, 24 hr incubation, relative to 2 μM resiquimod control, read-out: mean pEC50 for induction of TNF-α (converted)
Method: as §1, §2, §3, §4, §5

Compound	EC50 (Interferon-α) [µM]	EC50 (IFN-α) [µM]	EC50 (TNF-α) [µM]
CCCCOc1nc(N)c2[nH]c(=O)n(CCCN3CCC3)c2n1 [Example 1, 6-Amino-9-[3-(1-azetidinyl)propyl]-2-(butyloxy)-7,9-dihydro-8H-purin-8-one]	< 3.16		
CCCCOc1nc(N)c2[nH]c(=O)n(CCCN3CCCC3)c2n1 [Example 2, 6-Amino-2-(butyloxy)-9-[3-(1-pyrrolidinyl)propyl]-7,9-dihydro-8H-purin-8-one]	< 3.16		
CCCCOc1nc(N)c2[nH]c(=O)n(CCCN3CCCCCC3)c2n1 [Example 3, 6-Amino-2-(butyloxy)-9-[3-(hexahydro-1H-azepin-1-yl)propyl]-7,9-dihydro-8H-purin-8-one]	< 3.16		
CCCCOc1nc(N)c2[nH]c(=O)n(CCCCN3CCC3)c2n1 [Example 4, 6-Amino-9-[4-(1-azetidinyl)butyl]-2-(butyloxy)-7,9-dihydro-8H-purin-8-one]	< 3.16		
CCCCOc1nc(N)c2[nH]c(=O)n(CCCCN3CCCC3)c2n1 [Example 5, 6-Amino-2-(butyloxy)-9-[4-(1-pyrrolidinyl)butyl]-7,9-dihydro-8H-purin-8-one]	< 3.16	< 0.0316	> 3.16
CCCCOc1nc(N)c2[nH]c(=O)n(CCCCN3CCCCC3)c2n1 [Example 6, 6-Amino-2-(butyloxy)-9-[4-(1-piperidinyl)butyl]-7,9-dihydro-8H-purin-8-one]	< 3.16	≤ 0.01	> 1
CCCCOc1nc(N)c2[nH]c(=O)n(CCCCN3CCCCCC3)c2n1 [Example 7, 6-Amino-2-(butyloxy)-9-[4-(hexahydro-1H-azepin-1-yl)butyl]-7,9-dihydro-8H-purin-8-one]	< 3.16	≤ 0.01	> 1
CCCCOc1nc(N)c2[nH]c(=O)n(CCCCCN3CCC3)c2n1 [Example 8, 6-Amino-9-[5-(1-azetidinyl)pentyl]-2-(butyloxy)-7,9-dihydro-8H-purin-8-one]	< 3.16		
CCCCOc1nc(N)c2[nH]c(=O)n(CCCCCN3CCCC3)c2n1 [Example 9, 6-Amino-2-(butyloxy)-9-[5-(1-pyrrolidinyl)pentyl]-7,9-dihydro-8H-purin-8-one]	< 3.16	< 0.0316	> 3.16
CCCCOc1nc(N)c2[nH]c(=O)n(CCCCCN3CCCCC3)c2n1 [Example 10, 6-Amino-2-(butyloxy)-9-[5-(1-piperidinyl)pentyl]-7,9-dihydro-8H-purin-8-one]	< 3.16	≤ 0.01	> 1
CCCCOc1nc(N)c2[nH]c(=O)n(CCCCCN3CCCCCC3)c2n1 [Example 11, 6-Amino-2-(butyloxy)-9-[5-(hexahydro-1H-azepin-1-yl)pentyl]-7,9-dihydro-8H-purin-8-one]	< 3.16	≤ 0.01	> 1
CCCCNc1nc(N)c2[nH]c(=O)n(CCCN3CCCCC3)c2n1 [Example 16, 6-Amino-2-(butylamino)-9-[3-(1-piperidinyl)propyl]-7,9-dihydro-8H-purin-8-one]	< 3.16		
CCCCNc1nc(N)c2[nH]c(=O)n(CCCCN3CCCCC3)c2n1 [Example 17, 6-Amino-2-(butylamino)-9-[4-(1-piperidinyl)butyl]-7,9-dihydro-8H-purin-8-one]	< 3.16		
CCCCNc1nc(N)c2[nH]c(=O)n(CCCCCN3CCCCCC3)c2n1 [Example 19, 6-Amino-2-(butylamino)-9-[5-(hexahydro-1H-azepin-1-yl)pentyl]-7,9-dihydro-8H-purin-8-one]	< 3.16		
CC[C@H](C)Oc1nc(N)c2[nH]c(=O)n(CCCCN3CCCCC3)c2n1 [Example 24, 6-Amino-2-{[(1S)-1-methylpropyl]oxy}-9-[4-(1-piperidinyl)butyl]-7,9-dihydro-8H-purin-8-one]	< 3.16		
CCCC[C@H](C)Oc1nc(N)c2[nH]c(=O)n(CCCCN3CCCCC3)c2n1 [Example 25, 6-Amino-2-{[(1S)-1-methylpentyl]oxy}-9-[4-(1-piperidinyl)butyl]-7,9-dihydro-8H-purin-8-one]	< 3.16		
CC(C)Oc1nc(N)c2[nH]c(=O)n(CCCCCN3CCCCC3)c2n1 [Example 26, 6-Amino-2-[(1-methylethyl)oxy]-9-[5-(1-piperidinyl)pentyl]-7,9-dihydro-8H-purin-8-one]	< 3.16		
Nc1nc(OC2CCC2)nc2c1[nH]c(=O)n2CCCCN1CCCCC1 [Example 27, 6-Amino-2-(cyclobutyloxy)-9-[4-(1-piperidinyl)butyl]-7,9-dihydro-8H-purin-8-one]	< 3.16		
Nc1nc(OC2CCCC2)nc2c1[nH]c(=O)n2CCCCN1CCCCC1 [Example 28, 6-Amino-2-(cyclopentyloxy)-9-[4-(1-piperidinyl)butyl]-7,9-dihydro-8H-purin-8-one]	< 3.16		
Nc1nc(OC2CCCCC2)nc2c1[nH]c(=O)n2CCCCN1CCCCC1 [Example 29, 6-Amino-2-(cyclohexyloxy)-9-[4-(1-piperidinyl)butyl]-7,9-dihydro-8H-purin-8-one]	< 3.16		
CCC[C@@H](C)Nc1nc(N)c2[nH]c(=O)n(CCCCN3CCCCC3)c2n1 [Example 30, 6-Amino-2-{[(1R)-1-methylbutyl]amino}-9-[4-(1-piperidinyl)butyl]-7,9-dihydro-8H-purin-8-one]	< 3.16		
CCC[C@H](C)Nc1nc(N)c2[nH]c(=O)n(CCCCN3CCCCC3)c2n1 [Example 31, 6-Amino-2-{[(1S)-1-methylbutyl]amino}-9-[4-(1-piperidinyl)butyl]-7,9-dihydro-8H-purin-8-one]	< 3.16		
CCC[C@H](C)Oc1nc(N)c2[nH]c(=O)n(CCCN3CCCCC3)c2n1 [Example 32, 6-Amino-2-{[(1S)-1-methylbutyl]oxy}-9-[3-(1-piperidinyl)propyl]-7,9-dihydro-8H-purin-8-one]	< 3.16		
CC[C@H](C)Oc1nc(N)c2[nH]c(=O)n(CCCCCN3CCCCC3)c2n1 [Example 33, 6-Amino-2-{[(1S)-1-methylpropyl]oxy}-9-[5-(1-piperidinyl)pentyl]-7,9-dihydro-8H-purin-8-one]	< 3.16		
CCCCOc1nc(N)c2[nH]c(=O)n(CCCN3CCCCC3)c2n1 [Example 34, 6-Amino-2-(butyloxy)-9-[3-(1-piperidinyl)propyl]-7,9-dihydro-8H-purin-8-one]	< 3.16		
